Experimental data reported in patent US8338422B2, “Indolin-2-ones and aza-indolin-2-ones” (Janssen Pharmaceutica NV, priority 2007, dated 2012).

Key:
HCT-116 = experiment: Cellular proliferation assay (Alamar blue), HCT-116; type: cell-based; settings: HCT-116 cells, 72 hours with compound, 10% FCS
Procedure, shortened: (§1)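 Proliferation was assessed over 72 h of compound treatment, following 24 h of seeding without compound, under 10% FCS, 37° C. and 5% CO2. Fluorescent resazurin product was measured and compared with control cells.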

PC-3 = experiment: Cellular proliferation assay (Alamar blue), PC-3; type: cell-based; settings: PC-3 cells, 72 hours with compound, 10% FCS
Method: (§2) […] functional properties of these compounds was tested in cellular proliferation assays on a panel of different cell lines in the presence of 10% FCS serum (37° C. and 5% (v/v) CO2). In a first step these cells were seeded and incubated for 24 hours in the absence of compound. In the second step the cells were incubated for 72 hours with the compounds to be tested for 72 hours. The viable cell number was finally assessed in a standard Alamar blue cell viability assay.
(§3) The viable cell number was assessed by incubation for either 4 h (HCT-116, H1299, H460) 6 h (SKOV3, HT29, U87-MG, Colo205) or 24 h (A2780, PC3, MDA-MB-231, A549, MCF-7) with Alamar blue (Resazurin 9 μg/ml, K-Ferrocyanide 90 μM K-Ferricyanide 90 μM) and the converted fluorescent product was quantified on a fluorescent plate readed (544 nm/590 nm). Effect of the compounds is calculated as of on control cells.

PLK4 (h) = PLK4 (h) (Homo sapiens, UniProt O00444); experiment: PLK-4 human kinase assay (SPA); type: biochemical
Procedure, shortened: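 Radiometric readout: 33P-labelled peptide captured on streptavidin SPA beads after EDTA stop, imaged by Leadseeker. Reaction ran 60 min at room temperature in Hepes pH 8.0 buffer. It contained 1 μM ATP with 2 nM [γ-33P]ATP, 10 μM biotinylated peptide and PLK4 (h) at 19 μg/ml.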

CDK1/CyclinB (h) = CDK1/CyclinB (h) (Homo sapiens, UniProt P06493); experiment: CDK1/CyclinB human kinase assay (FRET); type: biochemical
Procedure, shortened: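 Z'-LYTE FRET format: 0.2 μg/ml enzyme with 2 μM Ser/Thr peptide 12 and 10 μM ATP in 50 mM Hepes pH 7.5, 10 mM MgCl2, 1 mM EGTA, 0.01% Brij-35, 60 min at room temperature. Protease development 60 min; coumarin/fluorescein emission ratio (460/538 nm, excitation 390 nm) reports phosphorylation.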

MDA/MB231 = experiment: Cellular proliferation assay (Alamar blue), MDA/MB231; type: cell-based; settings: MDA/MB231 cells, 72 hours with compound, 10% FCS
Method: as §2, §3

AuroraB (h) = AuroraB (h) (Homo sapiens, UniProt Q96GD4); experiment: Aurora-B human kinase assay (SPA); type: biochemical
Procedure, shortened: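 Scintillation proximity assay: AuroraB (h) at 0.5 μg/ml with 3 μM biotinylated peptide, 0.5 μM ATP and 2.2 nM [γ-33P]ATP in 60 mM Hepes pH 7.5, 3 mM MgCl2, 3 mM MnCl2, 2 mM DTT. 60 min at room temperature, EDTA stop, streptavidin PVT beads read on Leadseeker.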

H1299 = experiment: Cellular proliferation assay (Alamar blue), H1299; type: cell-based; settings: H1299 cells, 72 hours with compound, 10% FCS
Procedure, shortened: as §1

U87MG = experiment: Cellular proliferation assay (Alamar blue), U87MG; type: cell-based; settings: U87MG cells, 72 hours with compound, 10% FCS
Method: as §2, §3

A2780 = experiment: Cellular proliferation assay (Alamar blue), A2780; type: cell-based; settings: A2780 cells, 72 hours with compound, 10% FCS
Procedure, shortened: as §1

GSK3β (h) = GSK3β (h) (Homo sapiens, UniProt P49841); experiment: GSK-3β human kinase assay (SPA); type: biochemical
Procedure, shortened: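 Radiometric SPA read-out: after EDTA stop, biotinylated 33P-labelled peptide bound streptavidin PVT beads and was imaged on Leadseeker. Reaction: 60 min, room temperature, GSK3β (h) at 1 μg/ml, 1 μM substrate peptide, 1 μM ATP with 2 nM [γ-33P]ATP, Tris pH 7.4/MgCl2/DTT buffer.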

Sequence of CDK1/CyclinB (h) (P06493 whole entry): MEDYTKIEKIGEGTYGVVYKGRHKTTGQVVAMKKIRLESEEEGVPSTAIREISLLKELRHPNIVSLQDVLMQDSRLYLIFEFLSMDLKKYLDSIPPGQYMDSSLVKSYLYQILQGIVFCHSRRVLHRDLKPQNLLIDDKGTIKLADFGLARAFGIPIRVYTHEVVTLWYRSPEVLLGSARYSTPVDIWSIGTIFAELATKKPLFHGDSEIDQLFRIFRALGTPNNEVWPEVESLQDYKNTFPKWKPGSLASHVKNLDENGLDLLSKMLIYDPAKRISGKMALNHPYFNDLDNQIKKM
Sequence of CDK1/CyclinB (h) (P14635 whole entry partner): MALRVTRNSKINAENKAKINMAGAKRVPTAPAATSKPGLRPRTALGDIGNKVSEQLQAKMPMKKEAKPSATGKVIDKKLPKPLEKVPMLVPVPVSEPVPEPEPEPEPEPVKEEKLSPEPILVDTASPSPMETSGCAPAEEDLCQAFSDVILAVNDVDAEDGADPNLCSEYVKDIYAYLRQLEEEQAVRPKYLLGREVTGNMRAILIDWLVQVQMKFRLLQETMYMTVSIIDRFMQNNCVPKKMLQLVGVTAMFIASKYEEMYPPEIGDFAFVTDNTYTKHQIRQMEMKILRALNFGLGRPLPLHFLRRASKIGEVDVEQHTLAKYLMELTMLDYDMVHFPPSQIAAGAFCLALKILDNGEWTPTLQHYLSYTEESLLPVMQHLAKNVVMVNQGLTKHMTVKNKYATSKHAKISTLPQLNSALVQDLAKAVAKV
Sequence of GSK3β (h) (P49841 whole entry): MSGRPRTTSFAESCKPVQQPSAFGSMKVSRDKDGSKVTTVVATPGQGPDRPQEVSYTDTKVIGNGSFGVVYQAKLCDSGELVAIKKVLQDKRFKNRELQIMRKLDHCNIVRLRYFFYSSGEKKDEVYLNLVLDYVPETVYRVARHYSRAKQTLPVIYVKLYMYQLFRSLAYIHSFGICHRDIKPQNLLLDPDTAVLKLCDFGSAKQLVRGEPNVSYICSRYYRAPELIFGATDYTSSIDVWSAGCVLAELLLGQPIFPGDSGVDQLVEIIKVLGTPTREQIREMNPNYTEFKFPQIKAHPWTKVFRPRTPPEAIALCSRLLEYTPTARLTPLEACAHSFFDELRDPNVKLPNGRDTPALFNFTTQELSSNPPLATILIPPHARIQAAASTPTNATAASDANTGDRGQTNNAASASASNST
Sequence of AuroraB (h) (Q96GD4 whole entry): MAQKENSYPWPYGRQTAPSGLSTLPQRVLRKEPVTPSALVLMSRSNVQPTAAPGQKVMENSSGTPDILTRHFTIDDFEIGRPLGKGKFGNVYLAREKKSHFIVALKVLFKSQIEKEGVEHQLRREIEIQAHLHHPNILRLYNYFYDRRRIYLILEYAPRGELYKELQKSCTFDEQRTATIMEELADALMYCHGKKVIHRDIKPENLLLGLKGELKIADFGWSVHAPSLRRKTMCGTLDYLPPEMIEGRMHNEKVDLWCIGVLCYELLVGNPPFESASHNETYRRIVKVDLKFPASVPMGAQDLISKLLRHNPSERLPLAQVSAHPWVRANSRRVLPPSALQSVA
Sequence of PLK4 (h) (O00444 whole entry): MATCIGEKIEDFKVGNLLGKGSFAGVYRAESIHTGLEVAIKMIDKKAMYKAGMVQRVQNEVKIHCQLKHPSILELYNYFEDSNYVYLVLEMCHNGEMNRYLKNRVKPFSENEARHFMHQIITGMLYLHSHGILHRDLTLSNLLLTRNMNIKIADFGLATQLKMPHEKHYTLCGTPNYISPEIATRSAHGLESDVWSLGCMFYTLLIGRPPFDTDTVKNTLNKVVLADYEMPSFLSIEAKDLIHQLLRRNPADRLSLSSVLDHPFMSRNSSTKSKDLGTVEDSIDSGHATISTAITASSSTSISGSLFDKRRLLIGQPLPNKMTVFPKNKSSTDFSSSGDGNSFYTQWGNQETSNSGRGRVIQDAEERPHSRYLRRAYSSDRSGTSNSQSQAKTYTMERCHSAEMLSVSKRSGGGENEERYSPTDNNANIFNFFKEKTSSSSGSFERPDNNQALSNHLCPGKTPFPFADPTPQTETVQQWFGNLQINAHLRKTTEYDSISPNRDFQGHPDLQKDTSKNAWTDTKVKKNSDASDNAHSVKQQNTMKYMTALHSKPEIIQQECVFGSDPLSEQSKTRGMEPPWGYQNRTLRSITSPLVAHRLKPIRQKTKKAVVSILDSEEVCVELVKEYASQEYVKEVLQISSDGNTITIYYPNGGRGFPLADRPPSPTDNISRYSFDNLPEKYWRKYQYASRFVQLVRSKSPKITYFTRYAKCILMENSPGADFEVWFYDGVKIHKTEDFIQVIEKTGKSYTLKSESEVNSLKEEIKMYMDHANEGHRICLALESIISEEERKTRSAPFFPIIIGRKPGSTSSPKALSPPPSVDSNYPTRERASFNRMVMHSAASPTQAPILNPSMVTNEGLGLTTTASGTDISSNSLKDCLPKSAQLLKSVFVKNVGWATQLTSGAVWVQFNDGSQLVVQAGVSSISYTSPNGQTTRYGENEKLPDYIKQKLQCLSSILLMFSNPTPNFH

Row | Structure (SMILES) | pIC50 HCT-116 (HCT-116) | pIC50 PC-3 (PC-3) | PLK4 pIC50 (PLK4 (h)) | CDK1 pIC50 (CDK1/CyclinB (h)) | pIC50 MDA/MB231 (MDA/MB231) | AuroraB pIC50 (AuroraB (h)) | pIC50 H1299 (H1299) | pIC50 U87MG (U87MG) | pIC50 A2780 (A2780) | GSK3B pIC50 (GSK3β (h))
1 | CN1CCCNc2ncnc3c2C(=CNc2ccc(N4CCOCC4)c(c2)OCCCC1=O)C(=O)N3 (mixture of isomers) [Compound 124] | 6.21 | 6.02 | 7.34 | 7.53 | 5.37 | 6.13 | 6.89 | 6.16 | 5.94 | 7.33
2 | COc1cc2cc(c1OC)OCCCCC(=O)N(C)CCNc1ncnc3c1C(=CN2)C(=O)N3 (mixture of isomers) [Compound 129] | <5 | <5 | 5.71 | <5 | <5 | 5.26 | 5.65 | 5.42 | <5 | <5
3 | COc1cc2cc(c1OC)OCCCCC(=O)N(C)CCCNc1ncnc3c1C(=CN2)C(=O)N3 (mixture of isomers) [Compound 134] | 5.79 | 5.44 | 6.6 | 5.68 | 5.03 | 6.59 | 5.76 | <5 | 5.07 | 5.35
4 | CN1CCN(c2ccc3cc2OCCCCC(=O)N(C)CCNc2ncnc4c2C(=CN3)C(=O)N4)CC1 (mixture of isomers) [Compound 135] | 5.21 | <5 | 6.67 | <5 | <5 | <5 | 5.31 | <5 | <5 | 6.2
5 | CN1CCN(c2ccc3cc2OCCCCC(=O)N(C)CCCNc2ncnc4c2C(=CN3)C(=O)N4)CC1 (mixture of isomers) [Compound 136] | 6.44 | 5.39 | 7.19 | 5.88 | 5.55 | 5.55 | 5.67 | 6.54 | 5.89 | 7.23
6 | CN1CCN(c2ccc3cc2OCCCC(=O)N(C)CCNc2ncnc4c2C(=CN3)C(=O)N4)CC1 (mixture of isomers) [Compound 137] | 6.04 | <5 | 7.3 | 5.83 | 5.31 | ~5 | 5.73 | 5.94 | 5.61 | 6.405
7 | CN1CCN(c2ccc3cc2OCCCCCC(=O)N(C)CCCNc2ncnc4c2C(=CN3)C(=O)N4)CC1 (mixture of isomers) [Compound 138] | 5.52 | <5 | 6.74 | 5.8 | <5 | <5 | <5 | 6.05 | 5.16 | 6.75
8 | CN1CCCCCC(=O)N(C)CCCNc2ncnc3c2C(=CNc2ccc(N4CCOCC4)c(c2)C1)C(=O)N3 (mixture of isomers) [Compound 139] | 5.51 | <5 | 6.64 | <5 | <5 | <5 | <5 | 5.35 | 5.08 | 5.87
9 | COc1ccc2cc1OCCCC(=O)N(C(C)C)CCCNc1ncnc3c1C(=CN2)C(=O)N3 (mixture of isomers) [Compound 144] | 6.32 | 6.14 | 7.03 | 6.12 | 5.92 | 7.25 | 6.56 | 5.89 | 5.87 | 7.32
10 | COc1ccc2cc1OCCCC(=O)N(C1CCCCC1)CCCNc1ncnc3c1C(=CN2)C(=O)N3 (mixture of isomers) [Compound 145] | 6.04 | 6.04 | 6.61 | <5 | 5.73 | 6.41 | 6.08 | 5.45 | 5.53 | 6.4
11 | COc1cc2cc(c1OC)OCCCC(=O)NCCCNc1ncnc3c1C(=CN2)C(=O)N3 (mixture of isomers) [Compound 147] | 5.90 | 5.42 | 6.95 | 6.91 | <5 | 6.6 | 5.97 | 5.35 | 5.37 | 6.5
12 | COc1cc2cc(c1OC)OCC(=O)N(C)CCCCNc1ncnc3c1C(=CN2)C(=O)N3 (mixture of isomers) [Compound 150] | <5 | <5 | <5 | <5 | <5 | 5.23 | <5 | <5 | <5 | <5
